In ChEMBL document CHEMBL1139096, “HeLa cells apoptosis induced by 1,7-dimethyl-1,4,7,10-tetraazacyclododecane” (2007):
Active and inactive are the calls of the source. The calls are words filed in the database; no cut-off is given here.

How the values were obtained:
HeLa [1] = assay: Cell cycle arrest in human HeLa cells assessed as accumulation at G2/M phase at 300 umol/L after 72 hrs; type: functional
HeLa [2] = assay: Cell cycle arrest in human HeLa cells assessed as accumulation at G0-G1 phase at 50 umol/L after 72 hrs; type: functional
HeLa [3] = assay: Cell cycle arrest in human HeLa cells assessed as accumulation at G0-G1 phase at 300 umol/L after 72 hrs; type: functional
HeLa [4] = assay: Induction of apoptosis in human HeLa cells assessed as morphological changes at 50 umol/L; type: functional, cell-based
HeLa [5] = assay: Growth inhibition of human HeLa cells at 0.1 mM by MTT assay; type: functional; details: read-out: GI
HeLa [6] = assay: Growth inhibition of human HeLa cells at 10 uM by MTT assay; type: functional; details: read-out: GI
HeLa [7] = assay: Growth inhibition of human HeLa cells at 1 uM by MTT assay; type: functional; details: read-out: GI
HeLa [8] = assay: Growth inhibition of human HeLa cells at 0.1 uM by MTT assay; type: functional
A549 [9] = assay: Growth inhibition of human A549 cells at 0.1 mM by MTT assay; type: functional; details: read-out: GI
A549 [10] = assay: Growth inhibition of human A549 cells at 10 uM by MTT assay; type: functional; details: read-out: GI
A549 [11] = assay: Growth inhibition of human A549 cells at 1 uM by MTT assay; type: functional; details: read-out: GI
A549 [12] = assay: Growth inhibition of human A549 cells at 0.1 uM by MTT assay; type: functional; details: read-out: GI
HeLa [13] = assay: Induction of apoptosis in human HeLa cells at 300 umol/L by flow cytometry; type: functional
A549 [14] = assay: Induction of apoptosis in human A549 cells at 200 umol/L by flow cytometry; type: functional
HeLa [15] = assay: Cell cycle arrest in human HeLa cells assessed as accumulation at S phase at 50 umol/L after 72 hrs; type: functional
HeLa [16] = assay: Cell cycle arrest in human HeLa cells assessed as accumulation at S phase at 300 umol/L after 72 hrs; type: functional
HeLa [17] = assay: Cell cycle arrest in human HeLa cells assessed as accumulation at G2/M phase at 200 umol/L after 72 hrs; type: functional
HeLa [18] = assay: Induction of apoptosis in human HeLa cells assessed as morphological changes at 100 umol/L; type: functional, cell-based
HeLa [19] = assay: Induction of apoptosis in human HeLa cells assessed as morphological changes at 200 umol/L; type: functional, cell-based
HeLa [20] = assay: Induction of apoptosis in human HeLa cells assessed as DNA fragmentation at 200 umol/L by electrophoresis; type: functional, cell-based

CN1CCNCCN(C)CCNCC1
Activity (HeLa [1]): 15.3% | Activity (HeLa [2]): 60.5% | Activity (HeLa [3]): 84.7% | Activity (HeLa [4]): inactive | inhibition of growth at 100 µM (HeLa [5]): 63.1% | inhibition of growth at 10 µM (HeLa [6]): 17.7% | inhibition of growth at 1 µM (HeLa [7]): 9.8% | growth inhibition (GI) (HeLa [8]): 9% | inhibition of growth at 100 µM (A549 [9]): 53.6% | inhibition of growth at 10 µM (A549 [10]): 22.4% | inhibition of growth at 1 µM (A549 [11]): 13.7% | inhibition of growth at 0.1 µM (A549 [12]): 11% | Activity (HeLa [13]): 55% | Activity (A549 [14]): 7% | Activity (HeLa [15]): 33.3% | Activity (HeLa [16]): 0% | Activity (HeLa [17]): 25.2% | Activity (HeLa [18]): Active | Activity (HeLa [19]): Active | Activity (HeLa [20]): Active
